One experiment has as its system CHO. Put plainly: Cytotoxicity against CHO cells after 24 hrs. The experiment is classed as cell-based, Cricetulus griseus.
The test system of the next experiment is MCF7. Put plainly: Cytotoxicity against human MCF7 cells after 24 hrs. The experiment is classed as functional, cell-based.
A further experiment deals with HL-60. Put plainly: Cytotoxicity against human HL60 cells after 24 hrs. The experiment is classed as functional, cell-based.
The next experiment deals with A-375. Description: Cytotoxicity against human A375 cells after 24 hrs. In kind it is functional, cell-based.
The test system of another experiment is A549. Description: Cytotoxicity against human A549 cells after 24 hrs. In kind it is functional, cell-based.
[1] abbreviates: Cricetulus griseus, CHO, 24 h, read-out: IC50.
[2] abbreviates: Homo sapiens, MCF7, 24 h, read-out: IC50.
Setting [3] is: Homo sapiens, HL-60, 24 h, read-out: IC50.
Setting [4] is: Homo sapiens, A-375, 24 h, read-out: IC50.
Setting [5] is: Homo sapiens, A549, 24 h, read-out: IC50.

By IC50 is commonly meant the concentration needed to halve the response being measured.

SMILES strings stand for the structures. ≈ marks a conversion by molar mass, not a printed value.

For `CC1=CC(=O)[C@H]2C(C)(C)CCC[C@]2(C)[C@H]1/C=C/C1=C[C@@H]2O[C@@H]1[C@H]1C(=O)OC(=O)[C@H]12`, the IC50 is 12.1 µg/mL (≈ 30.6 µM) in the experiment on CHO (setting [1]), 24.1 µg/mL (≈ 60.8 µM) in the experiment on MCF7 (setting [2]), 28.1 µg/mL (≈ 70.9 µM) with HL-60 (setting [3]) and 30.4 µg/mL (≈ 76.7 µM) in the experiment with A-375 (setting [4]).
The matching figures for `CC1=CC(=O)[C@H]2C(C)(C)CCC[C@]2(C)[C@H]1/C=C/C1=C[C@H]2O[C@H]1[C@@H]1C(=O)C=CC(=O)[C@@H]12`: 8.28 µg/mL (≈ 20.4 µM), 15.4 µg/mL (≈ 37.9 µM), 14.7 µg/mL (≈ 36.2 µM) and 20.1 µg/mL (≈ 49.5 µM).
`CC1=CC(=O)[C@H]2C(C)(C)CCC[C@]2(C)[C@H]1/C=C/C1=C[C@H]2O[C@H]1[C@@H]1C(=O)OC(=O)[C@@H]12`: the IC50 in the experiment on CHO (setting [1]) was found to be 10.4 µg/mL (≈ 26.3 µM); in the experiment with MCF7 (setting [2]) it was 18.6 µg/mL (≈ 46.9 µM); in the experiment with A549 (setting [5]) it was 39.9 µg/mL (≈ 101 µM); with HL-60 (setting [3]), 17 µg/mL (≈ 42.9 µM); with A-375 (setting [4]), 20.4 µg/mL (≈ 51.4 µM).
For the compound `CC1=CC(=O)[C@H]2C(C)(C)CCC[C@]2(C)[C@H]1/C=C/C1=CC2OC1C1OCCC21` (stereo partly drawn), the IC50 stood at 30.1 µg/mL (≈ 81.8 µM) in the experiment on MCF7 (setting [2]), 48.4 µg/mL (≈ 131 µM) in the experiment on A549 (setting [5]) and 38.4 µg/mL (≈ 104 µM) in the experiment with HL-60 (setting [3]).
`CC1=CC(=O)[C@H]2C(C)(C)CCC[C@]2(C)[C@H]1/C=C/C1=CC2OC1C1CCOC21` (stereo partly drawn): the IC50 with MCF7 (setting [2]) is 33.9 µg/mL (≈ 91.9 µM); in the experiment with HL-60 (setting [3]), 38 µg/mL (≈ 103 µM); in the experiment with A-375 (setting [4]), 43.1 µg/mL (≈ 117 µM).
For `CC1=CC(=O)[C@H]2C(C)(C)CCC[C@]2(C)[C@H]1[C@@H]1O[C@@H]1c1ccoc1`, the IC50 was 9.61 µg/mL (≈ 30.6 µM) with CHO (setting [1]); 20.1 µg/mL (≈ 63.9 µM) in the experiment on MCF7 (setting [2]); 31.1 µg/mL (≈ 99.1 µM) with A549 (setting [5]); 19.4 µg/mL (≈ 61.8 µM) in the experiment with HL-60 (setting [3]); 26.1 µg/mL (≈ 83.1 µM) with A-375 (setting [4]).
Take `CC1CC(=O)[C@H]2C(C)(C)CCC[C@]2(C)[C@H]1CCc1ccoc1` (stereo partly drawn): the concentration for half-maximal inhibition (IC50) in the experiment on MCF7 (setting [2]), in the experiment on HL-60 (setting [3]) and in the experiment with A-375 (setting [4]) was over 100 µg/mL in each case.
Regarding `CC1(C)CCC[C@@]2(C)[C@H]1C(=O)CC(C)(C1(C)CC(=O)[C@H]3C(C)(C)CCC[C@]3(C)C1/C=C/c1ccoc1)[C@@H]2/C=C/c1ccoc1` (stereo partly drawn), the IC50 with CHO (setting [1]) stood at 6.91 µg/mL (≈ 11.5 µM); in the experiment on MCF7 (setting [2]), 11.2 µg/mL (≈ 18.7 µM); with A549 (setting [5]), 23 µg/mL (≈ 38.4 µM); in the experiment on HL-60 (setting [3]), 13.9 µg/mL (≈ 23.1 µM); in the experiment on A-375 (setting [4]) it was 16.8 µg/mL (≈ 28.1 µM).
Regarding `CC1=CC(=O)[C@H]2C(C)(C)CCC[C@]2(C)[C@H]1C=O`, the IC50 in the experiment with CHO (setting [1]) turned out to be 34.9 µg/mL (≈ 149 µM); in the experiment with MCF7 (setting [2]) it was 38.1 µg/mL (≈ 163 µM); in the experiment on HL-60 (setting [3]) it was 39.7 µg/mL (≈ 169 µM); in the experiment with A-375 (setting [4]), 35.1 µg/mL (≈ 150 µM).
As for `CC1=CC(=O)[C@H]2C(C)(C)CCC[C@]2(C)[C@H]1CCc1ccoc1`, the IC50 in the experiment with MCF7 (setting [2]) was over 100 µg/mL; in the experiment with HL-60 (setting [3]), 87 µg/mL (≈ 290 µM); with A-375 (setting [4]), 60 µg/mL (≈ 200 µM).
For the compound `CC1=CC(=O)[C@H]2C(C)(C)CCC[C@]2(C)[C@H]1/C=C/C1=C[C@H]2O[C@H]1[C@H]1C(=O)C=CC(=O)[C@H]12`, the IC50 with CHO (setting [1]) was determined as 8.19 µg/mL (≈ 20.1 µM); in the experiment on MCF7 (setting [2]), 15.7 µg/mL (≈ 38.7 µM); with A549 (setting [5]), 35.9 µg/mL (≈ 88.3 µM); in the experiment on HL-60 (setting [3]), 14.1 µg/mL (≈ 34.6 µM); in the experiment on A-375 (setting [4]) it was 19 µg/mL (≈ 46.8 µM).
`CC1=CC(=O)[C@H]2C(C)(C)CCC[C@]2(C)[C@H]1/C=C/C1=C[C@H]2O[C@H]1[C@H]1C(=O)OC(=O)[C@H]12` (stereo in doubt; 3b): the IC50 came out at 9.11 µg/mL (≈ 23 µM) in the experiment on CHO (setting [1]); 17 µg/mL (≈ 42.9 µM) with MCF7 (setting [2]); 36.4 µg/mL (≈ 91.9 µM) in the experiment with A549 (setting [5]); 16.9 µg/mL (≈ 42.7 µM) in the experiment on HL-60 (setting [3]); 20 µg/mL (≈ 50.5 µM) in the experiment with A-375 (setting [4]).
As for `CC1=CC(=O)[C@H]2C(C)(C)CCC[C@]2(C)[C@H]1/C=C/C1=C[C@H]2O[C@H]1[C@H]1C(=O)OC(=O)[C@H]12` (stereo in doubt; 3c), the IC50 was 11.08 µg/mL (≈ 27.9 µM) with CHO (cho), 23.18 µg/mL (≈ 58.5 µM) with MCF7 (mcf7), 21.73 µg/mL (≈ 54.8 µM) in the experiment on HL-60 (hl-60) and 27.84 µg/mL (≈ 70.2 µM) with A-375 (a-375).
`COC1CCC2C3C=C(/C=C/[C@H]4C(C)=CC(=O)[C@H]5C(C)(C)CCC[C@]45C)C(O3)C2O1` (stereo in doubt; 3g): the IC50 amounted to 13.1 µg/mL (≈ 31.7 µM) in the experiment with CHO (setting [1]); 28.1 µg/mL (≈ 68.1 µM) in the experiment on MCF7 (setting [2]); 43.2 µg/mL (≈ 105 µM) in the experiment on A549 (setting [5]); 27.7 µg/mL (≈ 67.1 µM) in the experiment on HL-60 (setting [3]); 30.2 µg/mL (≈ 73.2 µM) in the experiment on A-375 (setting [4]).
The matching figures for `COC1CCC2C3OC(C=C3/C=C/[C@H]3C(C)=CC(=O)[C@H]4C(C)(C)CCC[C@]34C)C2O1` (stereo in doubt; 3h): 14.1 µg/mL (≈ 34.3 µM), 28 µg/mL (≈ 67.8 µM), 43 µg/mL (≈ 104 µM), 27.1 µg/mL (≈ 65.8 µM) and 32.1 µg/mL (≈ 77.9 µM).
On to `COC1CCC2C3C=C(/C=C/[C@H]4C(C)=CC(=O)[C@H]5C(C)(C)CCC[C@]45C)C(O3)C2O1` (stereo in doubt; 3i), for which the half-inhibitory concentration (IC50) in the experiment with CHO (cho) was determined as 13.91 µg/mL (≈ 33.7 µM); with MCF7 (mcf7), 29.3 µg/mL (≈ 71 µM); with A549 (a549) it was 47.71 µg/mL (≈ 116 µM); in the experiment on HL-60 (hl-60) it was 28.41 µg/mL (≈ 68.9 µM); with A-375 (a-375) it was 31.12 µg/mL (≈ 75.4 µM).
For `COC1CCC2C3OC(C=C3/C=C/[C@H]3C(C)=CC(=O)[C@H]4C(C)(C)CCC[C@]34C)C2O1` (stereo in doubt; 3j), in the experiment with CHO (cho), the IC50 was 14.03 µg/mL (≈ 34 µM).
In the case of `CC1=CC(=O)[C@H]2C(C)(C)CCC[C@]2(C)[C@H]1/C=C/C1=CC2OC1C1C(=O)c3ccccc3C(=O)C21` (stereo in doubt; 3k), the IC50 was 7.94 µg/mL (≈ 17.4 µM) in the experiment with CHO (setting [1]), 15 µg/mL (≈ 32.8 µM) in the experiment on MCF7 (setting [2]), 13.7 µg/mL (≈ 30 µM) with HL-60 (setting [3]) and 18.7 µg/mL (≈ 41 µM) with A-375 (setting [4]).
For `CC1=CC(=O)[C@H]2C(C)(C)CCC[C@]2(C)[C@H]1/C=C/C1=CC2OC1C1C(=O)c3ccccc3C(=O)C21` (stereo in doubt; 3l), the IC50 in the experiment on CHO (cho) turned out to be 7.91 µg/mL (≈ 17.3 µM); with MCF7 (mcf7), 14.72 µg/mL (≈ 32.2 µM); in the experiment with A549 (setting [5]) it was 34.5 µg/mL (≈ 75.5 µM); with HL-60 (hl-60), 13.88 µg/mL (≈ 30.4 µM); in the experiment on A-375 (a-375), 18.64 µg/mL (≈ 40.8 µM).
With `CC1=CC(=O)[C@H]2C(C)(C)CCC[C@]2(C)[C@H]1/C=C/C1=CC2OC1C1CNCC21` (stereo in doubt; 3o), the IC50 with CHO (setting [1]) was 19.2 µg/mL (≈ 52.2 µM); with MCF7 (setting [2]), 36.7 µg/mL (≈ 99.9 µM); in the experiment on HL-60 (setting [3]), 39.9 µg/mL (≈ 108 µM).
With `CC1=CC(=O)[C@H]2C(C)(C)CCC[C@]2(C)[C@H]1/C=C/C1=CC2OC1C1CNCC21` (stereo in doubt; 3p), the IC50 in the experiment on MCF7 (mcf7) came to 31.98 µg/mL (≈ 87 µM); in the experiment on HL-60 (hl-60), 43.18 µg/mL (≈ 117 µM).
For `CC1=CC(=O)[C@H]2C(C)(C)CCC[C@]2(C)[C@H]1/C=C/c1ccoc1` [HEDYCHENONE], the IC50 with CHO (setting [1]) turned out to be 8.2 µg/mL (≈ 27.5 µM); in the experiment on MCF7 (setting [2]), 19.4 µg/mL (≈ 65 µM); in the experiment with A549 (setting [5]) it was 33.1 µg/mL (≈ 111 µM); with HL-60 (setting [3]), 17.7 µg/mL (≈ 59.2 µM); in the experiment on A-375 (setting [4]), 21.1 µg/mL (≈ 70.8 µM).
For `CC1(C)CCC[C@]2(C)[C@@H](/C=C/c3ccoc3)C(CO)=CC(=O)[C@@H]12` [YUNNACORONARIN D], in that order: 39 µg/mL (≈ 124 µM), 34.3 µg/mL (≈ 109 µM), 50.1 µg/mL (≈ 159 µM), 26.2 µg/mL (≈ 83.3 µM) and 40 µg/mL (≈ 127 µM).

These data come from ChEMBL document CHEMBL1156159, “Synthesis, cytotoxic activity and structure-activity relationships of hedychenone analogues” (Bioorg Med Chem Lett, 2010).
